target: human Nav1.8 (Homo sapiens (Human), UniProt Q9Y5Y9); test: Nav1.8 Qube automated patch-clamp assay; format: cell-based; settings: human Nav1.8 stably expressed in HEK 293 cells, whole-cell voltage clamp, room temperature; read-out: IC50 (nM) in the Nav 1.8 Qube Assay
Procedure: Qube® Assay Experimental Procedure Compounds were tested on human Nav1.8 and Nav1.5 channels stably expressed in human embryo kidney (HEK) 293 cells. Sodium current measurements on Qube® were conducted as follows: automated 384-well patch-clamp assays on the Qube® platform (Sophion Biosciences) were used to measure the inhibition of sodium flow through human Nav1.8 and Nav1.5 channels. Whole-cell voltage-clamp recordings were performed in QChips® (Sophion Biosciences) at room temperature. Nav1.8 current measurements on Qube® were obtained as follows: Nav1.8 currents were elicited with a 10 second 1 Hertz (Hz) pulse train from a holding potential of −90 millivolts (mV), delivered to the cells once per minute in the control condition (DMSO only) and after compound addition. The 1 hertz pulse train stimulation consisted often test pulses to 10 millivolt (mV) for 20 milliseconds (ms), each of which was followed by a 980 millisecond repolarization to −67 millivolts. At the end of the 10 second pulse train stimulation, a 5 second hyperpolarization step to −100 millivolt (mV) was used to recover Nav1.8 from fast inactivation. The peak currents elicited by the 1st and 10th test pulses were used to determine IC50 values for resting inhibition and inactivated state inhibition. Nav1.5 current measurements on Qube® were obtained as follows: Nav1.5 currents were elicited with a 20 second 3 Hertz pulse train in the control condition (DMSO only) and after compound addition. The pulse train consisted of sixty 20 millisecond test pulses to 0 millivolt from a holding potential of −80 millivolt (mV). The average peak currents elicited by the last 3 test pulses were used to determine IC50 values for Nav1.5 inhibition.
The following buffers were used for the Qube® recordings: External buffer for Nav1.8 Qube® recording: 150 NaCl, 2 CaCl2, 5 KCl, 1 Mg Cl2, 10 HEPES, 12 Dextrose; External buffer for Qube® Nav1.5 recording: 120 N-Methyl-D-Glucamine, 40 NaCl, 1 KCl, 2.7 CaCl2), 5 HEPES, 0.5 MgCl2; and Internal buffer for Qube® recording: 120 CsF, 30 CsCl, 10 EGTA, 5 HEPES, 5 NaF, 2 MgCl2.
For all Qube® experiments offline analysis was used to determine percent inhibition as a function of drug concentration. IC50 values were determined by fitting to the Hill equation.

human Nav1.8, sequence (Q9Y5Y9 whole entry): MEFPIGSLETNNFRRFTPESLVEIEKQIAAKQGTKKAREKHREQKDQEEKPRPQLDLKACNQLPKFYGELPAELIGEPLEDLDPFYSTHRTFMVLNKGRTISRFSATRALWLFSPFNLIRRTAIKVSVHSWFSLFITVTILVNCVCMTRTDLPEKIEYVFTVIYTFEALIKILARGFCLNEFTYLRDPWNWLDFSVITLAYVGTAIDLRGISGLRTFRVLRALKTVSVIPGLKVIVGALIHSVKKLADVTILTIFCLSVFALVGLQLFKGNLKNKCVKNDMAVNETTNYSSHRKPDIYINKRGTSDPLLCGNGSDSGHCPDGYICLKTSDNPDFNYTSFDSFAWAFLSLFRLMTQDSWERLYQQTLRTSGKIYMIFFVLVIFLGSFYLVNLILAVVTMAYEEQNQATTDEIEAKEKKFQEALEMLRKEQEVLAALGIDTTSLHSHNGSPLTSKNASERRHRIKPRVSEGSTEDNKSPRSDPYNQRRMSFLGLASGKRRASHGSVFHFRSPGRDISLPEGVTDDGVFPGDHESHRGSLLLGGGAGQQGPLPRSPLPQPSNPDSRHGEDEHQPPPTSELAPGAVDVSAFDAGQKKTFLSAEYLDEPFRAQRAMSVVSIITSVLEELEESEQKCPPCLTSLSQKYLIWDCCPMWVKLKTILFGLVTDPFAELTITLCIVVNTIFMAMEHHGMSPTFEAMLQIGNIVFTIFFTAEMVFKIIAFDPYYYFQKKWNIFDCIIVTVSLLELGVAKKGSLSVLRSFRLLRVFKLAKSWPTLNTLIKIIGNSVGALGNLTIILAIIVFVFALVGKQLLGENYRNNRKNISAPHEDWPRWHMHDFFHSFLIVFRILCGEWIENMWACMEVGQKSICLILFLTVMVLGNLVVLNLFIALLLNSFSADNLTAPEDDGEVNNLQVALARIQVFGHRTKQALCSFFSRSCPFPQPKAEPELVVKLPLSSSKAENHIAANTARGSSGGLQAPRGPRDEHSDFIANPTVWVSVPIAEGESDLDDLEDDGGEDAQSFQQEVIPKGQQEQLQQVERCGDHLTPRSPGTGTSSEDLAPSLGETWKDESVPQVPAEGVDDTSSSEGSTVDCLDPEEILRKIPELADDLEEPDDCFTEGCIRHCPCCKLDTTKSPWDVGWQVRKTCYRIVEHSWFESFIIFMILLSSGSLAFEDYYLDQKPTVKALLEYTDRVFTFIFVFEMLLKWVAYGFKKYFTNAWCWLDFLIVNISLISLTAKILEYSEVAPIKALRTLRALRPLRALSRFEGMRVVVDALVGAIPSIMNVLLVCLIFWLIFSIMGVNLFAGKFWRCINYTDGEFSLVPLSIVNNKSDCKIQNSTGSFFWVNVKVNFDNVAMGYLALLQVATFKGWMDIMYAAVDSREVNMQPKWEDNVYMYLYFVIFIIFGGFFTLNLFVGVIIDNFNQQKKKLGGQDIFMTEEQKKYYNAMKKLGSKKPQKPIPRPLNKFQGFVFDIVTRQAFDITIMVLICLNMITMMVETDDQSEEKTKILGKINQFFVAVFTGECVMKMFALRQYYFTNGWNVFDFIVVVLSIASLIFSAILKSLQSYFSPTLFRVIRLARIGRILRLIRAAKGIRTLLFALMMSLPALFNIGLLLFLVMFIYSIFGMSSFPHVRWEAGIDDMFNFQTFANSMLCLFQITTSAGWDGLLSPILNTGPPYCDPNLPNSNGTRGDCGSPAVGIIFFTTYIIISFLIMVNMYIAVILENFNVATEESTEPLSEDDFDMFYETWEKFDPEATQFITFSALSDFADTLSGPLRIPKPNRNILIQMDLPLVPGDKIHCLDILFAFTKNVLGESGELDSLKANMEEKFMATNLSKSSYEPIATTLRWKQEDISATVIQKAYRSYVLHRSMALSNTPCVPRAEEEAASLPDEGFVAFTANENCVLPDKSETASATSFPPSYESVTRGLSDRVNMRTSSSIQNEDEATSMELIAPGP

SMILES	IC50 [nM]
CC[C@@H]1CN(c2ncc(C(F)(F)F)cc2C(=O)Nc2ccnc(S(N)(=O)=O)c2)C[C@@H](C(F)(F)F)O1 (single isomer, unassigned) [Example 133, 2-((2R,6S or 2S,6R)-2-ethyl-6-(trifluoromethyl)morpholino)-N-(2-sulfamoylpyridin-4-yl)-5-(trifluoromethyl)nicotinamide]	12
CC[C@H]1CN(c2ncc(C(F)(F)F)cc2C(=O)Nc2ccnc(S(N)(=O)=O)c2)C[C@H](C(F)(F)F)O1 (single isomer, unassigned) [Example 134, 2-((2S,6R or 2R,6S)-2-ethyl-6-(trifluoromethyl)morpholino)-N-(2-sulfamoylpyridin-4-yl)-5-(trifluoromethyl)nicotinamide]	155
NS(=O)(=O)c1cc(NC(=O)c2cc(C(F)(F)F)cnc2N2CCCC(F)(F)CC2)ccn1 [Example 13, 2-(4,4-difluoroazepan-1-yl)-N-(2-sulfamoylpyridin-4-yl)-5-(trifluoromethyl)nicotinamide]	4.1
Cc1nc(N2CCC(F)(F)CC2)c(C(=O)Nc2ccnc(S(N)(=O)=O)c2)cc1C1CCC1 [Example 15, 5-cyclobutyl-2-(4,4-difluoropiperidin-1-yl)-6-methyl-N-(2-sulfamoylpyridin-4-yl)nicotinamide]	6.5
Cc1nc(N2CCC(F)(F)CC2)c(C(=O)Nc2ccnc(S(N)(=O)=O)c2)cc1C#CC1CC1 [Example 16, 5-(cyclopropylethynyl)-2-(4,4-difluoropiperidin-1-yl)-6-methyl-N-(2-sulfamoylpyridin-4-yl)nicotinamide]	12
Cc1ccc(C(=O)Nc2ccnc(S(N)(=O)=O)c2)c(N2CCCC(F)(F)CC2)n1 [Example 17, 2-(4,4-difluoroazepan-1-yl)-6-methyl-N-(2-sulfamoylpyridin-4-yl)nicotinamide]	3.1
NS(=O)(=O)c1cc(NC(=O)c2ccc(CC3CC3)nc2N2CCCC(F)(F)CC2)ccn1 [Example 18, 6-(cyclopropylmethyl)-2-(4,4-difluoroazepan-1-yl)-N-(2-sulfamoylpyridin-4-yl)nicotinamide]	0.9
Cc1cc(C(=O)Nc2ccnc(S(N)(=O)=O)c2)c(N2CCCC(F)(F)CC2)nc1C [Example 19, 2-(4,4-difluoroazepan-1-yl)-5,6-dimethyl-N-(2-sulfamoylpyridin-4-yl)nicotinamide]	1.6
NS(=O)(=O)c1cc(NC(=O)c2cc(Cl)c(C3CC3)nc2N2CCCC(F)(F)CC2)ccn1 [Example 21, 5-chloro-6-cyclopropyl-2-(4,4-difluoroazepan-1-yl)-N-(2-sulfamoylpyridin-4-yl)nicotinamide]	4.5
NS(=O)(=O)c1cc(NC(=O)c2ccc(C3CC3)nc2N2CCCC(F)(F)CC2)ccn1 [Example 22, 6-cyclopropyl-2-(4,4-difluoroazepan-1-yl)-N-(2-sulfamoylpyridin-4-yl)nicotinamide]	3
NS(=O)(=O)c1cc(NC(=O)c2cc(Cl)c(C3CCC3)nc2N2CCCC(F)(F)CC2)ccn1 [Example 23, 5-chloro-6-cyclobutyl-2-(4,4-difluoroazepan-1-yl)-N-(2-sulfamoylpyridin-4-yl)nicotinamide]	2.6
O=C(Nc1cnn(S(=O)(=O)C2CC2)c1)c1cc(C(F)(F)F)cnc1N1CCCC(F)(F)CC1 [Example 36, N-[1-(cyclopropylsulfonyl)-1H-pyrazol-4-yl]-2-(4,4-difluoroazepan-1-yl)-5-(trifluoromethyl)pyridine-3-carboxamide]	147
NS(=O)(=O)c1cc(NC(=O)c2cc(CC3CC3)cnc2N2CCCC(F)(F)CC2)ccn1 [Example 46, 5-(cyclopropylmethyl)-2-(4,4-difluoroazepan-1-yl)-N-(2-sulfamoylpyridin-4-yl)nicotinamide]	1

Second part, the compound after the results:

IC50 [nM]	SMILES
58	CC1CN(c2ncc(C(F)(F)F)cc2C(=O)Nc2ccnc(S(N)(=O)=O)c2)CCC(C(F)(F)F)O1 (single isomer, unassigned) [Example 121, 2-((2R,7S or 2S.7R)-2-methyl-7-(trifluoromethyl)-1,4-oxazepan-4-yl)-N-(2-sulfamoylpyridin-4-yl)-5-(trifluoromethyl)nicotinamide]
9.2	C[C@@H]1CN(c2nc(C3CCC3)c(Cl)cc2C(=O)Nc2ccnc(S(N)(=O)=O)c2)C[C@@H](C(F)(F)F)O1 (single isomer, unassigned) [Example 160, 5-chloro-6-cyclobutyl-2-((2R,6S or 2S,6R)-2-methyl-6-(trifluoromethyl)morpholino)-N-(2-sulfamoylpyridin-4-yl)nicotinamide]
63	C[C@H]1CN(c2nc(C3CCC3)c(Cl)cc2C(=O)Nc2ccnc(S(N)(=O)=O)c2)C[C@H](C(F)(F)F)O1 (single isomer, unassigned) [Example 161, 5-chloro-6-cyclobutyl-2-((2S,6R or 2R,6S)-2-methyl-6-(trifluoromethyl)morpholino)-N-(2-sulfamoylpyridin-4-yl)nicotinamide]
52	C[C@@H]1CN(c2nc(C3CCC3)ccc2C(=O)Nc2ccnc(S(N)(=O)=O)c2)C[C@@H](C(F)(F)F)O1 (single isomer, unassigned) [Example 167, 6-cyclobutyl-2-((2R,6S or 2S,6R)-2-methyl-6-(trifluoromethyl)morpholino)-N-(2-sulfamoylpyridin-4-yl)nicotinamide]
17	C[C@H]1CN(c2nc(C3CCC3)ccc2C(=O)Nc2ccnc(S(N)(=O)=O)c2)C[C@H](C(F)(F)F)O1 (single isomer, unassigned) [Example 168, 6-cyclobutyl-2-((2S,6R or 2R,6S)-2-methyl-6-(trifluoromethyl)morpholino)-N-(2-sulfamoylpyridin-4-yl)nicotinamide]
0.8	Cc1nc(N2C[C@@H](C)C(F)(F)[C@@H](C)C2)c(C(=O)Nc2ccnc(S(N)(=O)=O)c2)cc1Cl [Example 53, 5-chloro-2-[(3S,5R)-4,4-difluoro-3,5-dimethyl-1-piperidyl]-6-methyl-N-(2-sulfamoyl-4-pyridyl)pyridine-3-carboxamide]
5.3	NS(=O)(=O)c1cc(NC(=O)c2ccc(C(F)(F)F)nc2N2CCCC(F)(F)CC2)ccn1 [Example 132, 2-(4,4-difluoroazepan-1-yl)-N-(2-sulfamoylpyridin-4-yl)-6-(trifluoromethyl)nicotinamide]
5.8	NS(=O)(=O)c1cc(NC(=O)c2ccc(Cl)nc2N2CCCC(F)(F)CC2)ccn1 [Example 138, 6-chloro-2-(4,4-difluoroazepan-1-yl)-N-(2-sulfamoyl-4-pyridyl)pyridine-3-carboxamide]
22	C[C@@H]1CN(c2ncc(C(F)(F)F)cc2C(=O)Nc2ccnc(S(C)(=O)=O)c2)C[C@H](C)C1(F)F [Example 147, 2-((3S,5R)-4,4-difluoro-3,5-dimethylpiperidin-1-yl)-N-(2-(methylsulfonyl)pyridin-4-yl)-5-(trifluoromethyl)nicotinamide]
58	C[C@@H]1CN(c2ncc(C(F)(F)F)cc2C(=O)Nc2ccnc(C(N)=O)c2)C[C@H](C)C1(F)F [Example 156, 4-(2-((3S,5R)-4,4-difluoro-3,5-dimethylpiperidin-1-yl)-5 (trifluoromethyl)nicotinamido)picolinamide]
13	C[C@@H]1CN(c2nc(C3CCC3)ccc2C(=O)Nc2ccnc(S(N)(=O)=O)c2)C[C@H](C)C1(F)F [Example 166, 6-cyclobutyl-2-((3S,5R)-4,4-difluoro-3,5-dimethylpiperidin-1-yl)-N-(2-sulfamoylpyridin-4-yl)nicotinamide]
6.9	C[C@@H]1CN(c2nc(C3CCC3)c(Cl)cc2C(=O)Nc2ccnc(S(N)(=O)=O)c2)C[C@H](C)C1(F)F [Example 169, 5-chloro-6-cyclobutyl-2-((3S,5R)-4,4-difluoro-3,5-dimethylpiperidin-1-yl)-N-(2-sulfamoylpyridin-4-yl)nicotinamide]
0.3	Cc1nc(N2CCCC(F)(F)CC2)c(C(=O)Nc2ccnc(S(N)(=O)=O)c2)cc1Cl [Example 172, 5-chloro-2-(4,4-difluoroazepan-1-yl)-6-methyl-N-(2-sulfamoylpyridin-4-yl)nicotinamide]
2.8	NS(=O)(=O)c1cc(NC(=O)c2cc(OC(F)(F)F)cnc2N2CCCC(F)(F)CC2)ccn1 [Example 177, 2-(4,4-difluoroazepan-1-yl)-N-(2-sulfamoylpyridin-4-yl)-5-(trifluoromethoxy)nicotinamide]
0.5	Cc1nc(N2CCCC(F)(F)CC2)c(C(=O)Nc2ccnc(S(N)(=O)=O)c2)cc1C(F)(F)F [Example 184, 2-(4,4-difluoroazepan-1-yl)-6-methyl-N-(2-sulfamoylpyridin-4-yl)-5-(trifluoromethyl)nicotinamide]
